Like-named read-outs stand apart in the source and are kept apart here.
Tests used:
[1] = target: T1, HDAC2 (Homo sapiens, UniProt Q92769); test: HDAC biochemical assay of O10-O12 (Table O1); parameters: The recombinant, full-length HDAC protein (BPS Biosciences) was incubated; purchased BPS Biosciences
[2] = target: T2, HDAC1 (Homo sapiens, UniProt Q13547); conditions: read-out: HDAC1 IC50; Table O1
[3] = target: T3, HDAC6 (Homo sapiens, UniProt Q9UBN7); conditions: read-out: HDAC6 IC50; Table O1; 200 μM TCEP
T3 sequence (Q9UBN7 1-1215): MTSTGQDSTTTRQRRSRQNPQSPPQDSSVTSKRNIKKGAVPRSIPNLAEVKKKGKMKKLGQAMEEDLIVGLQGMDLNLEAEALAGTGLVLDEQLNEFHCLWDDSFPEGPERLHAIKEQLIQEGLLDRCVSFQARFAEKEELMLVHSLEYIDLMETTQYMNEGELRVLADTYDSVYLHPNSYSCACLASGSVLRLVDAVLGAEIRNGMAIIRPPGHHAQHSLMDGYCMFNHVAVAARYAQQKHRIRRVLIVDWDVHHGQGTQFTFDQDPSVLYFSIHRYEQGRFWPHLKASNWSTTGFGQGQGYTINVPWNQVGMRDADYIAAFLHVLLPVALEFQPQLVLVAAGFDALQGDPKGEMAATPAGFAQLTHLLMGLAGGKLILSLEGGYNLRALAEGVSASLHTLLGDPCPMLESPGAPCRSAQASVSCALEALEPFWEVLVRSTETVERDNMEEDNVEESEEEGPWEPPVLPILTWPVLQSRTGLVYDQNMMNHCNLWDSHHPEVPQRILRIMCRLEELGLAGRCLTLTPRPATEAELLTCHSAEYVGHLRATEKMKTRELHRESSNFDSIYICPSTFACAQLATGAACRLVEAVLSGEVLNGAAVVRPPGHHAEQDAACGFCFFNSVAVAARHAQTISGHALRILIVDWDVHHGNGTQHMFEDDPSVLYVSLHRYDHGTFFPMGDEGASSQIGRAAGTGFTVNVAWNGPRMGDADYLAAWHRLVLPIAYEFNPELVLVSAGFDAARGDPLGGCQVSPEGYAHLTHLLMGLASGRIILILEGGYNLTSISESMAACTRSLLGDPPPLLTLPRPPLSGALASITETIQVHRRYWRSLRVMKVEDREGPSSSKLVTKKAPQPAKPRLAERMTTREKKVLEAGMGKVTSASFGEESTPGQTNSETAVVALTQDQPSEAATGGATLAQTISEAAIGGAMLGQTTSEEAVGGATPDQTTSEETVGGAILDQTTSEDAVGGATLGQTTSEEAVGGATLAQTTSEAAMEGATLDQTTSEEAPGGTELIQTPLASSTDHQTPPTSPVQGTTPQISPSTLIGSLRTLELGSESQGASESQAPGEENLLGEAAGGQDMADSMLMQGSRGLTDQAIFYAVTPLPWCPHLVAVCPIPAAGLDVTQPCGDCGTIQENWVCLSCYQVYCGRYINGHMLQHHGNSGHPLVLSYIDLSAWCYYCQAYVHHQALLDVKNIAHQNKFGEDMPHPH

[4] = target: T4, HDAC3 (Homo sapiens, UniProt O15379); test: HDAC biochemical assay of O10-O12 (Table O1)
T4 construct: The recombinant, full-length HDAC protein (BPS Biosciences) was incubated; purchased BPS Biosciences
T4 sequence (O15379 whole entry): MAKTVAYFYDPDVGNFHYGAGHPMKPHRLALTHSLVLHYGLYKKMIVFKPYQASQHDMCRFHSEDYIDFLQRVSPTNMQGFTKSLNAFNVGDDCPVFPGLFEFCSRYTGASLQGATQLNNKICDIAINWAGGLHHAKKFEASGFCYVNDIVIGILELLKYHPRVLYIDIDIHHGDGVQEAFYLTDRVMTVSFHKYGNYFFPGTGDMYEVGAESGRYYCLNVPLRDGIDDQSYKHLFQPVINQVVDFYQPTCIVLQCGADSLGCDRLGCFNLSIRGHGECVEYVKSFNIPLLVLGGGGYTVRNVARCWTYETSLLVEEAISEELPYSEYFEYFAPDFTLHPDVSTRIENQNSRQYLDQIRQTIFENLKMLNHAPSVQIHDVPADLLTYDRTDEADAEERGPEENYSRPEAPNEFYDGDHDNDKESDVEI
T4 sequence (Q9Y618 395-489 partner limits assumed): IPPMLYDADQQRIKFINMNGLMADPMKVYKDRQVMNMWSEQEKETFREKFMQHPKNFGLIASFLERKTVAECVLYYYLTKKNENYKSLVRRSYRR

[5] = target: T5, HDAC3/NCor2 (Homo sapiens, UniProt O15379); test: HDAC biochemical assay (Example 16)
T5 construct: recombinant, full-length HDAC protein; purchased BPS Biosciences
T5 sequence (O15379 whole entry): as the sequence (O15379 whole entry) above
T5 sequence (Q9Y618 395-489 partner limits assumed): as the sequence (Q9Y618 395-489 partner limits assumed) above
Description: (§1) Thus, small-molecule inhibitors were arrayed at twelve-point dose-response (3-fold increments) in 384-well library plates and transferred by robotic pin device to replicate assay plates containing assay buffer under reducing conditions (TCEP 200 μM). A liquid handling device then transferred a tripeptide substrate terminating in acetyl-lysine and amide conjugated to 4-methyl-7-aminocoumarin (AMC), recombinant human histone deacetylase (BPS Bioscience, San Diego, Calif.), and recombinant human trypsin (Sigma-Aldrich, St. Louis, Mo.). Following deacetylase hydrolysis of acetyl-lysine, trypsin cleavage liberated the AMC fluorophore. Kinetic (fluorescence per unit time) and end-point (total fluorescence) data were captured by a multilabel plate reader. Replicate data were analyzed by curve-fit using logistic regression (Spotfire Decision-Site).

[6] = target: T1, HDAC2; test: HDAC2 inhibition, trypsin-coupled kinetic fluorescence homogeneous assay (Example 10); assay type: biochemical; parameters: The recombinant, full-length HDAC protein (BPS Biosciences) was incubated; purchased BPS Biosciences; conditions: Conc (uM); logistic curve fit of activity versus concentration; some fits reached max iterations; read-out: X50
Description: To measure the inhibitory effect on deacetylase function in vitro, a continuous kinetic biochemical assay miniaturized to 384-well plate format was optimized.
Fluorescence measurements were obtained in real-time on a Varioskan microtiter plate reader (Thermo).
A biochemical study of HDAC2 inhibition was carried out using the trypsin-coupled, kinetic fluorescence homogeneous assay described above.

[7] = target: T3, HDAC6; test: HDAC biochemical assay (Example 16); parameters: recombinant, full-length HDAC protein; purchased BPS Biosciences; conditions: Table 4; reducing conditions (TCEP 200 μM)
Description: as §1

[8] = target: T1, HDAC2; test: HDAC biochemical assay (Example 16); parameters: recombinant, full-length HDAC protein; purchased BPS Biosciences; conditions: Table 4; reducing conditions (TCEP 200 μM)
Description: as §1

[9] = target: T2, HDAC1; test: HDAC biochemical assay (Example 16); parameters: recombinant, full-length HDAC protein; purchased BPS Biosciences; conditions: Table 4; reducing conditions (TCEP 200 μM)
Description: as §1

[10] = tested on: human HDACs; test: HDAC biochemical assay (Example 16), summary statements over isoforms
Description: The inhibitory effect of compounds on deacetylase isoenzyme function was determined in vitro using an optimized homogenous assay performed in 384-well plate format. […] Data are analyzed on a plate-by-plate basis for the linear range of fluorescence over time. Data from the plate capture corresponding to the mid-linear range is imported into analytical software and annotated with well identity and compound concentration (Spotfire DecisionSite). Replicate experimental data from incubations with inhibitor are normalized to control, solvent-only wells and IC-50 is determined by logistic regression.
Thus, small-molecule inhibitors were arrayed at twelve-point dose-response (3-fold increments) in 384-well library plates and transferred by robotic pin device to replicate assay plates containing assay buffer under reducing conditions (TCEP 200 μM). A liquid handling device then transferred a tripeptide substrate terminating in acetyl-lysine and amide conjugated to 4-methyl-7-aminocoumarin (AMC), recombinant human histone deacetylase (BPS Bioscience, San Diego, Calif.), and recombinant human trypsin (Sigma-Aldrich, St. Louis, Mo.). […] Kinetic (fluorescence per unit time) and end-point (total fluorescence) data were captured by a multilabel plate reader. Replicate data were analyzed by curve-fit using logistic regression (Spotfire Decision-Site). […]

T2 sequence (Q13547 whole entry): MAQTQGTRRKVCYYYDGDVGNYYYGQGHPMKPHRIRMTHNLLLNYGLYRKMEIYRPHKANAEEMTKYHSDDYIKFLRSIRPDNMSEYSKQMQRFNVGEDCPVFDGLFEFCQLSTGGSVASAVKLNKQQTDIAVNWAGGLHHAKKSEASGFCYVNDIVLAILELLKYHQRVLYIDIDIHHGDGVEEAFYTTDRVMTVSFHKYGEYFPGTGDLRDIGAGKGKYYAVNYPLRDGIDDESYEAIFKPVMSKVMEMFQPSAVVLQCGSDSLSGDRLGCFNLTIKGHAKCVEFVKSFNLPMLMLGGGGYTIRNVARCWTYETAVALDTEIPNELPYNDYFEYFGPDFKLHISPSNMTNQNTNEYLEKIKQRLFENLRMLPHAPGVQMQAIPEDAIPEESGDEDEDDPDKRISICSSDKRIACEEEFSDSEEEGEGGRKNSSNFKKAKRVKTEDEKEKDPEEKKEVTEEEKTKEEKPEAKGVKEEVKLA
T1 sequence (Q92769 whole entry): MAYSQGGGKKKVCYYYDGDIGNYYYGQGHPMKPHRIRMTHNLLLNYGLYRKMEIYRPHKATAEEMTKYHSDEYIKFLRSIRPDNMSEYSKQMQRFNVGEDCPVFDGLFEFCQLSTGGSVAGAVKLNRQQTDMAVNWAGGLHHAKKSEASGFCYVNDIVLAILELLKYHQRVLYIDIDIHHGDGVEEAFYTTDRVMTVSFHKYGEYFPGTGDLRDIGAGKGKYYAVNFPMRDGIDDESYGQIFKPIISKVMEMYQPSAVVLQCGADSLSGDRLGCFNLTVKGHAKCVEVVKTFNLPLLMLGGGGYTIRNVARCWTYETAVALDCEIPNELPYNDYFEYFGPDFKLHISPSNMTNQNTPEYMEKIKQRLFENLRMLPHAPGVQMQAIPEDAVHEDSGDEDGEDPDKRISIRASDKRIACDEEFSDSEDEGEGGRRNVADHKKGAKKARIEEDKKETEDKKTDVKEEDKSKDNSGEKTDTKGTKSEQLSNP

Work on CCCCCCCC(=O)SCCC=CC1CC(=O)NCc2nc(co2)C2=NC(C)(CS2)C(=O)NC(C(C)C)C(=O)O1 (stereo not drawn) [Compound O12, Thiazoline-Oxazole Thioester Analog] yielded an IC50 [1] of 2100 nM, an IC50 [2] of 950 nM and an IC50 [3] of 1100 nM. The IC50 [4] was 1900 nM.
With C[C@@]12CSC(=N1)c1csc(n1)CNC(=O)C[C@@H](/C=C/CCS)OC(=O)[C@@H]1CCCN1C2=O [Proline substitution (4)] the IC50 ([5]; Table 4, reducing conditions (TCEP 200 μM)) was 580 nM, the IC50 [6] was 0.773 µM and the IC50 [7] was 13000 nM. It also gave an IC50 [8] of 800 nM and an IC50 [9] of 110 nM.
In the case of CC(C)[C@@H]1NC(=O)[C@]2(C)CSC(=N2)c2cccc(n2)CNC(=O)C[C@@H](/C=C/CCS)OC1=O [Thiazole-pyridine substitution (29b)], the IC50 [5] is reported as 1.1 nM, the IC50 [7] is reported as 29 nM and the “activity against Class I HDACs” value [10] is reported as “sub-nanomolar”.
In the case of CC(C)C1NC(=O)C2(C)COC(=N2)c2coc(n2)CNC(=O)CC(C=CCCSSCCC=CC2CC(=O)NCc3nc(co3)C3=NC(C)(CO3)C(=O)NC(C(C)C)C(=O)O2)OC1=O (stereo not drawn) [Oxazoline-oxazole (39b), Disulfide Dimer 39b], the IC50 [5] is reported as 1.5 nM, the IC50 [8] is reported as 1.7 nM and the IC50 [9] is reported as 0.69 nM.

From patent US10676504B2 (Colorado State University Research Foundation, priority 2015, dated 2020)
